Drawing on ChEMBL document CHEMBL3886160, “1,2,4-triazine-6-carboxamide derivative” (2015), this text covers IC50 for three compounds.

The structures appear in SMILES notation.

In the assay the target is Tyrosine-protein kinase SYK (Homo sapiens, UniProt P43405). Nature of the assay: Syk Kinase Inhibition Assay: The in vitro inhibitory activity of the compound of the present invention against Syk kinase activity was assayed under the following conditions: the purified human Syk protein used in the test were purchased from Carna Biosciences, Inc. For the inhibitory activity assay on the compound, the compound of the present invention was first serially diluted with dimethyl ….
Description: Syk Kinase Inhibition Assay: The in vitro inhibitory activity of the compound of the present invention against Syk kinase activity was assayed under the following conditions: the purified human Syk protein used in the test were purchased from Carna Biosciences, Inc. For the inhibitory activity assay on the compound, the compound of the present invention was first serially diluted with dimethyl sulfoxide (DMSO). […] The kinase reaction was stopped by the addition thereto of EDTA.
The term IC50 denotes the point on the concentration scale where inhibition reaches its midpoint. Compound `Cc1cc(Nc2nc(N[C@@H]3CCOC[C@@H]3N)nnc2C(N)=O)cc2ccsc12` returned an IC50 of 0.37 nM. As to `NC(=O)c1nnc(N[C@@H]2CCOC[C@@H]2N)nc1Nc1csc2ccccc12`, the IC50 was determined as 0.89 nM.

In the case of `NC(=O)c1nnc(N[C@@H]2CCCC[C@@H]2N)nc1Nc1nc(-c2ccccc2)cs1`, the half-maximal inhibitory concentration (IC50) worked out at 0.38 nM.
